The record followed here is PMC11364775, “Ion occupancy of the selectivity filter controls opening of a cytoplasmic gate in the K2P channel TALK-2” (Nature Communications, 2024).

Assay [1] addresses T1, WT TALK-2 channels (Homo sapiens, UniProt Q96T54).
T1 sequence (Q96T54 1-332): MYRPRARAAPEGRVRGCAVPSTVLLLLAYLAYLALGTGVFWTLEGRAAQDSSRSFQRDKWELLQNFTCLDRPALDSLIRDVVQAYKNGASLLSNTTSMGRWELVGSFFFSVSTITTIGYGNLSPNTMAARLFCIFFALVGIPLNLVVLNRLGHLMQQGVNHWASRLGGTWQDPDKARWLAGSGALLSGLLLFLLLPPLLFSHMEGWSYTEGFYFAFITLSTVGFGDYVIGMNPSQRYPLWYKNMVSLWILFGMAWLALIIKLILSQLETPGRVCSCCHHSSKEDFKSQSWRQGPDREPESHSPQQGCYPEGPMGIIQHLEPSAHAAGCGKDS
As to the kind of experiment: Pore blocker inhibition (dose-response, residual currents) in inside-out patches at +40 mV. Format: cell-based. The arrangement: expressed in transfected cells; host or cells: Xenopus laevis oocytes (cRNA injection), excised inside-out patches. As to conditions: for blocker inhibition upon activation by 2-APB: 2-APB pre-activated.
Procedure: (§1) Data shown are the mean ± s.e.m and the number (n) of independent experiments and repeats of representative measurements with similar results is indicated in the figure.
(§2) Electrophysiological recordings: Excised patch measurements in inside-out configuration under voltage-clamp conditions were performed at room temperature (22 – 24 °C). Patch pipettes were made from thick-walled borosilicate glass GB 200TF-8P (Science Products, Germany), had resistances of 0.2–0.5 MΩ (tip diameter of 10 - 25 µm) and filled with a pipette solution (in mM): 120 KCl, 10 HEPES and 3.6 CaCl2 (pH 7.0 - 8.5 adjusted with KOH/HCl) or 120 KCl, 10 AMPSO and 3.6 CaCl2 (pH 9.0 - 10.5 adjusted with KOH/HCl). Intracellular bath solutions and compounds were applied to the cytoplasmic side of excised patches for the various K^+ channels via a gravity flow multi-barrel pipette system. Intracellular solution had the following composition (in mM): 120 KCl, 10 HEPES, 2 EGTA and 1 Pyrophosphate (pH adjusted with KOH/HCl). In other intracellular bath solutions, K^+ was replaced by Rb^+ (pH 7.4 adjusted with RbOH/HCl). Currents were recorded with an EPC10 amplifier (HEKA electronics, Germany) and sampled at 10 kHz or higher and filtered with 3 kHz (-3 dB) or higher as appropriate for sampling rate.
(§3) Data analysis and statistics were done using Fitmaster (HEKA electronics, version: v2x73.5, Germany), Microsoft Excel 2021 (Microsoft Corporation, USA), and Igor Pro 9 software (WaveMetrics Inc., USA). Recorded currents were analyzed from stable membrane patches at a voltage defined in the respective figure legend or with a voltage protocol as indicated in the respective figure. […] Percentage inhibition or residual currents upon blocker application for a ligand (drug or bioactive lipid) was calculated from stable currents of excised membrane patches using the following Eqs. 2 and 3:2 %inhibition=1−Iinhibited/Ibasal*100 3 Residual current=100−%inhibition where Iinhibited refers to the stable current level recorded in the presence of a given concentration of a drug or bioactive lipid and Ibasal to the measured current before ligand application.

Assay [2] addresses T2, TALK-2 L264A mutant channels (Homo sapiens, UniProt Q96T54, L264A).
T2 sequence (Q96T54 1-332 L264A): T1 sequence (Q96T54 1-332) with L264A
Described as above. In kind it is cell-based. On the set-up: expressed in transfected cells; host or cells: Xenopus laevis oocytes (cRNA injection), excised inside-out patches. As to conditions: TALK-2 L264A.
Procedure: as §1, §2, §3

Assay [3] deals with T3, WT TALK-2 channels (human K2P17.1) (Homo sapiens, UniProt Q96T54).
T3 sequence (Q96T54 1-332): T1 sequence (Q96T54 1-332)
Kind of assay: Inside-out patch-clamp, ligand activation of channel currents at +40 mV (oocytes). In general terms: Patch clamp records ionic current or voltage across a cell membrane.
Procedure: Oocytes were surgically removed from anesthetized adult females, treated with type II collagenase (Sigma-Aldrich/Merck, Germany) and manually defolliculated. 50 nl of a solution containing the K^+ channel specific cRNA was injected into Dumont stage V - VI oocytes and subsequently incubated at 17 °C in a solution containing (mM): 54 NaCl, 30 KCl, 2.4 NaHCO3, 0.82 MgSO4 x 7 H2O, 0.41 CaCl2, 0.33 Ca(NO3)2 x 4 H2O and 7.5 TRIS (pH 7.4 adjusted with NaOH/HCl) for 1–7 days before use. Electrophysiological recordings: Excised patch measurements in inside-out configuration under voltage-clamp conditions were performed at room temperature (22 – 24 °C). […] Intracellular bath solutions and compounds were applied to the cytoplasmic side of excised patches for the various K^+ channels via a gravity flow multi-barrel pipette system. Intracellular solution had the following composition (in mM): 120 KCl, 10 HEPES, 2 EGTA and 1 Pyrophosphate (pH adjusted with KOH/HCl). In other intracellular bath solutions, K^+ was replaced by Rb^+ (pH 7.4 adjusted with RbOH/HCl). Currents were recorded with an EPC10 amplifier (HEKA electronics, Germany) and sampled at 10 kHz or higher and filtered with 3 kHz (-3 dB) or higher as appropriate for sampling rate.
Recorded currents were analyzed from stable membrane patches at a voltage defined in the respective figure legend or with a voltage protocol as indicated in the respective figure. The fold activation (fold change in (tail) current amplitude) of a ligand (drug or bioactive lipid) was calculated from Eq. 1:1 Fold activationFA=Iactivated/Ibasal where Iactivated represents the stable current level in the presence of a given concentration of a respective ligand and Ibasal the measured current before ligand application. Percentage inhibition or residual currents upon blocker application for a ligand (drug or bioactive lipid) was calculated from stable currents of excised membrane patches using the following Eqs. 2 and 3:2 %inhibition=1−Iinhibited/Ibasal*100 3 Residual current=100−%inhibition where Iinhibited refers to the stable current level recorded in the presence of a given concentration of a drug or bioactive lipid and Ibasal to the measured current before ligand application. The macroscopic half-maximal concentration-inhibition relationship of a ligand was obtained using a Hill-fit for dose-response curves as depicted in Eq. 4:4 %inhibition/activation=Ibase+Imax−Ibase/1+x1/2/x^rate where base and max are the currents in the absence and presence of a respective ligand, x is the concentration of the ligand, x1/2 is the ligand concentration at which the activatory or inhibitory effect is half-maximal, rate is the Hill coefficient.

The target in assay [4] is T1, WT TALK-2 channels. As to the kind of experiment: Cysteine modification assay with MTS-ET, control (inside-out patch). As to conditions: basal state or activated with 2-APB or oleoyl-CoA; 1.0 mM MTS-ET.
Procedure: To investigate the latter, we utilized a cysteine modification assay.
Oocytes were surgically removed from anesthetized adult females, treated with type II collagenase (Sigma-Aldrich/Merck, Germany) and manually defolliculated. 50 nl of a solution containing the K^+ channel specific cRNA was injected into Dumont stage V - VI oocytes and subsequently incubated at 17 °C in a solution containing (mM): 54 NaCl, 30 KCl, 2.4 NaHCO3, 0.82 MgSO4 x 7 H2O, 0.41 CaCl2, 0.33 Ca(NO3)2 x 4 H2O and 7.5 TRIS (pH 7.4 adjusted with NaOH/HCl) for 1–7 days before use. Electrophysiological recordings: Excised patch measurements in inside-out configuration under voltage-clamp conditions were performed at room temperature (22 – 24 °C). […] Currents were recorded with an EPC10 amplifier (HEKA electronics, Germany) and sampled at 10 kHz or higher and filtered with 3 kHz (-3 dB) or higher as appropriate for sampling rate.
Data analysis and statistics were done using Fitmaster (HEKA electronics, version: v2x73.5, Germany), Microsoft Excel 2021 (Microsoft Corporation, USA), and Igor Pro 9 software (WaveMetrics Inc., USA). Recorded currents were analyzed from stable membrane patches at a voltage defined in the respective figure legend or with a voltage protocol as indicated in the respective figure.
In assay [5] the target is T1, WT TALK-2 channels. As to the kind of experiment: Tail current deactivation kinetics with pore blocker (inside-out patch). In kind it is cell-based. The arrangement: expressed in transfected cells; host or cells: Xenopus laevis oocytes (cRNA injection), excised inside-out patches. As to conditions: intracellular Rb+ without blocker; step to +100 mV, repolarization to -80 mV. From the text: In voltage-gated K^+ (Kv) channels, the closing of the lower gate can be prevented by the binding of blockers such as tetra-pentyl-ammonium (TPenA) in the pore cavity and, thereby, causing a slowing of the deactivation kinetics which is known as the ‘foot in the door’ effect[33],[34]. To test for such a mechanism in TALK-2, we activated the channels with a voltage step to +100 mV in the presence of intracellular Rb^+ followed by a repolarization step to -80 mV (to induce tail currents) with and without the K2P channel pore blocker TPenA. […] We hypothesize, that the two gates are strongly coupled and, therefore, opening the SF gate by depolarization should also open the lower gate, which then consequently would allow blocker (like TPenA) binding within the pore cavity (Fig. 5a cartoon). Upon repolarization, however, the bound TPenA blocker obstructs closure of the lower gate and thereby, hinders the SF from closure/inactivation (gate coupling).

Assay [6] has as its target T4, WT TREK-2 channels (human K2P10.1) (Homo sapiens, UniProt P57789).
T4 construct: expressed in transfected cells; host or cells: Xenopus laevis oocytes (cRNA injection), excised inside-out patches
T4 sequence (P57789 1-538): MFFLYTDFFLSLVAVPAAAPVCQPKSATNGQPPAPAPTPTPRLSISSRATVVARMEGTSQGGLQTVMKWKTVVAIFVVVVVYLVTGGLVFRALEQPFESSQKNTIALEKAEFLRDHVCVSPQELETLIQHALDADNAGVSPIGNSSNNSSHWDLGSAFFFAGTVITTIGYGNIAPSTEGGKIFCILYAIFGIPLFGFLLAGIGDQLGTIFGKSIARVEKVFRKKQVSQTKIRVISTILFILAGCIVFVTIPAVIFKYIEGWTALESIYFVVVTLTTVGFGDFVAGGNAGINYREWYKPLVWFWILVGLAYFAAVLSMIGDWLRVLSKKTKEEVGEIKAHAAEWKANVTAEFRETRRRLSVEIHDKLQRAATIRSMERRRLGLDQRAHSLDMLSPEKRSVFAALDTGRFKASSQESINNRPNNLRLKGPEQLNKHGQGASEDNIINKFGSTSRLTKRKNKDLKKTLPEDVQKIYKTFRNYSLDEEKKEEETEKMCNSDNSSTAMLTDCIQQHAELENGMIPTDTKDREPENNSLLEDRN
The description is as above. Format: cell-based. To be noted: intracellular Rb+ without blocker.

Positions count from the first letter of the chain named. Entries after “also recorded” stand apart in the source; their conditions may differ.

Turning to `COc1ccc(CC(=O)NCc2ccccc2-c2ccccc2C(=O)NCc2ccc(F)cc2F)cc1` [A1899], the “blocker inhibition upon activation by 2-APB” value on WT TALK-2 channels [1] is listed as “strong inhibition”. Further, the “Residual currents with 10 µM A1899” value on WT TALK-2 channels [1] (TALK-2 WT + 1.0 mM 2-APB) was 50.53%; on WT TALK-2 channels [1] (TALK-2 WT) it was 100.95%; in assay [2] (10 µM A1899) it was 41.55%. The “blocker inhibition of unstimulated TALK-2 channels” value at WT TALK-2 channels [1] is given as “little inhibition”.

Take `COc1ccc(CC(=O)NCc2ccccc2-c2ccccc2C(=O)NCCc2cccnc2)cc1` [AVE0118]: at WT TALK-2 channels [1], the “blocker inhibition upon activation by 2-APB” value is given as “strong inhibition”. The “Residual currents with 50 µM AVE0118” value at WT TALK-2 channels [1] (TALK-2 WT + 1.0 mM 2-APB) is listed as 12.33%; at WT TALK-2 channels [1] (TALK-2 WT) it was 96.7%; in assay [2] (50 µM AVE0118), 14.56%. In addition, on WT TALK-2 channels [1], the “blocker inhibition of unstimulated TALK-2 channels” value is on record as “little inhibition”.

Take `c1ccc(-c2nn[nH]n2)c(Nc2cccc3c2CCCC3)c1` [BL-1249]: in assay [3] (50 µM BL-1249, +40 mV), the “activation of TALK-2 channels by BL-1249” value was “robust and reversible channel activation”. Further, the “Fold activation 50 µM BL-1249” value in assay [3] (50 µM, TALK-2 WT) turned out to be 72.38 fold.

As for `C[N+](C)(C)CCSS(C)(=O)=O.[Cl-]` [MTS-ET], the “effect of MTS-ET on WT TALK-2 currents” value at WT TALK-2 channels [4] was “almost no effect; also recorded: insensitive”.

In the case of `[Rb+]` [Rb^+], the figures for the “deactivation time constant τ of tail currents” value (at WT TALK-2 channels [5]; in assay [6]) were 3.0 ± 0.2 ms and 17.5 ± 1.7 ms, respectively. Moreover, the “Fold Rb+ activation” value in assay [3] (TALK-2 WT) is 9.12 fold.

`O=C(NCc1ccccc1-c1ccccc1C(=O)NCCc1ccccn1)OCc1ccccc1` [S9947]: at WT TALK-2 channels [1], the “blocker inhibition upon activation by 2-APB” value is recorded as “strong inhibition”. Besides, the figures for the “Residual currents with 50 µM S9947” value (on WT TALK-2 channels [1] (TALK-2 WT + 1.0 mM 2-APB); at WT TALK-2 channels [1] (TALK-2 WT); in assay [2] (50 µM S9947)) were 6.15%, 98.48% and 41.47%, respectively. Also, the “blocker inhibition of unstimulated TALK-2 channels” value at WT TALK-2 channels [1] is “little inhibition”.
